Reference: US8618082B2, “Lupeol anti-tumor agent and uses thereof” (Wisconsin Alumni Research Foundation, priority 2004, dated 2013)
Marks after values point to notes of the source that are not given here.

Assays:
[1] = tested on: pro-caspases-8 and -9 in LNCaP cells; assay: Pro-caspases-8 and -9 expression in LNCaP cells (western blot); format: cell-based, human
Experimental: FIG. 13 depicts effect of Lupeol treatment on protein expression of pro-caspases-8 and -9 in LNCaP cells. Cells were treated with only specified concentrations of Lupeol for 48 h, harvested and total cell lysates were prepared. Expression of pro-caspases-8 and -9 were determined by western blot analysis. Equal loading was confirmed by stripping immunoblots and reprobing them for β-actin. The immunoblots shown here are representative of three independent experiments with similar results.

[2] = tested on: Ras, PKCα, ODC, pAkt in AsPC-1 cells; assay: Ras, PKCα, ODC, PI3K, pAkt expression in AsPC-1 cells; format: cell-based
Description: FIG. 23 depicts effect of Lupeol treatment on the expression of Ras, PKCα, ODC, PI3K (P85), pAkt and total Akt, p38 and Erk1/2 proteins in AsPC-1 cells.

CD-1 mouse skin = assay: TPA-induced cutaneous edema, skin punch weight; format: in vivo; details: for protection against TPA-induced skin edema: dose not stated, p<0.01
Experimental: Studies from the inventors' laboratory and by other have shown that TPA application to mouse skin results in cutaneous edema (Katiyar et at, 1996; Liang et at, 2002). In the present study, the inventors evaluated the protective effects of topical application of Lupeol in TPA-mediated cutaneous edema in CD-1 mouse. The inventors tested four doses 0.25, 0.5, 1 and 2 mg of Lupeol per animal in the inventors' preliminary studies. […] The CD-1 mice were topically treated with Lupeol (1 and 2 mg/mouse) and 30 min later were topically treated with TPA (3.2 nmole/mouse). […] At least four determinations were made at different dorsal skin sites per mouse in each group. The data represents the mean±SE of eight mice (*p<0.01 vs TPA).
The animals were shaved on the dorsal side of the skin, divided into four groups and treated topically on the shaved area with either 0.4 ml vehicle (acetone), or TPA (3.2 nmol/0.4 ml acetone/animal, v/v), or Lupeol (1 or 2 mg/0.2 ml acetone/animal, w/v) followed 30 min later with TPA (3.2 nmol/0.2 ml acetone/animal). Animals were sacrificed at different times point i.e. 6, 12, 24 and 48 h post TPA treatment. The epidermis was separated from the whole skin and homogenized in 0.1 M Tris-HCl buffer (pH 7.2) using a Polytron tissue homogenizer (Brinkmann Instruments, Westbury, N.Y., USA) at 100,000×g supernatant, and microsomal fractions were prepared as described earlier (Katiyar and Mukhtar, 1997). The sample of 6 h treatment group was used to assess the ODC activity as this time point has previously been shown for optimal induction of the enzyme (Katiyar er al., 1996).
To assess the inhibitory effect of pre-application of Lupeol on TPA-induced edema, 1 cm-diameter punches of skin from vehicle-, Lupeol-, TPA- or Lupeol- and TPA-treated mice were removed, made free of fat pads, and weighed immediately. After drying for 24 h at 50° C., the skin punches were reweighed, and the loss of water content was determined. The difference in the amount of water gain between the control (vehicle treated) and TPA treated represented the extent of edema induced by TPA, whereas that between the control vehicle and Lupeol plus TPA represented the inhibitory effect of Lupeol. For the hyperplasia study, skin was removed, fixed in 10% formalin, and embedded in paraffin. Vertical sections (5 μm) were cut, mounted on a glass slide, and stained with hematoxylin and eosin.

IKKα protein = assay: TPA-induced activation of IKKα (western blot); format: in vivo, mouse; details: highest dose of Lupeol, 12 h time point
Experimental: FIG. 6. Inhibitory effect of Lupeol on TPA-induced activation of IKKα, and phosphorylation and degradation of IκBα in CD-1 mice: At different times after treatment, the animals were sacrificed, epidermal cytosolic was prepared, and protein expression was determined. Equal loading was confirmed by stripping the immunoblot and reprobing it for β-actin. The immunoblots shown here are representative of three independent experiments with similar results. The values above each lane indicate relative density of the band normalized to β-actin.
The animals were shaved on the dorsal side of the skin, divided into four groups and treated topically on the shaved area with either 0.4 ml vehicle (acetone), or TPA (3.2 nmol/0.4 ml acetone/animal, v/v), or Lupeol (1 or 2 mg/0.2 ml acetone/animal, w/v) followed 30 min later with TPA (3.2 nmol/0.2 ml acetone/animal). […]
Epidermis from the whole skin was separated as described earlier (Katiyar et al., 1999) and was homogenized in ice-cold lysis buffer [50 mM Tris-HCl, 150 mM NaCl, 1 mM EGTA, 1 mM EDTA, 20 mM NaF, 100 mM Na3VO4, 0.5% NP-40, 1% Triton X-100, 1 mM PMSF (pH 7.4)] with freshly added protease inhibitor cocktail, Protease Inhibitor Cocktail Set III (Calbiochem, La Jolla, Calif., USA). […] The protein content in the lysates was measured by DC BioRad assay (BioRad Laboratories, Hercules, Calif.) as per the manufacturer's protocol. […]

[3] = Lupeol alone (2 mg), topical, no TPA, mean±SE of eight mice
[4] = TPA + Lupeol (1 mg), Lupeol topical 30 min before TPA
[5] = TPA + Lupeol (2 mg), Lupeol topical 30 min before TPA

C=C(C)[C@@H]1CC[C@]2(C)CC[C@]3(C)[C@H](CC[C@@H]4[C@@]5(C)CC[C@H](O)C(C)(C)[C@@H]5CC[C@]43C)[C@@H]12 [Lupeol, Lup-20(29)-en-3β-ol]
activation of Caspase-8 and 9 proteins [1]: induces the activation | expression of inactive (pro-) caspases-8 and -9 ([1]; 48 h): causes disappearance of inactive caspases | expression of Ras protein [2]: decrease | phosphorylation of Akt [2]: reduction in the phosphorylation of Akt | protein expression of ODC [2]: significant reduction | protein expression of PKCa [2]: significant reduction | protection against TPA-induced skin edema (CD-1 mouse skin; 24 h post-treatment): 48% | protection against TPA-induced skin edema (CD-1 mouse skin; 48 h post-treatment): 43% | Skin punch weight 24 hrs (CD-1 mouse skin; [3]): 13.5 ± 1.5 mg/cm2 | Skin punch weight 48 hrs (CD-1 mouse skin; [3]): 15.5 ± 1.5 mg/cm2 | % protection 24 hrs (CD-1 mouse skin; TPA + Lupeol (1 mg)): 53% | % protection 48 hrs (CD-1 mouse skin; TPA + Lupeol (1 mg)): 52% | Skin punch weight 24 hrs (CD-1 mouse skin; [4]): 18.5 ± 1.0* mg/cm2 | Skin punch weight 48 hrs (CD-1 mouse skin; [4]): 20.0 ± 1.0* mg/cm2 | % protection 24 hrs (CD-1 mouse skin; TPA + Lupeol (2 mg)): 79% | % protection 48 hrs (CD-1 mouse skin; TPA + Lupeol (2 mg)): 85% | Skin punch weight 24 hrs (CD-1 mouse skin; [5]): 16.0 ± 1.5* mg/cm2 | Skin punch weight 48 hrs (CD-1 mouse skin; [5]): 16.5 ± 0.75* mg/cm2 | skin edema after Lupeol alone (CD-1 mouse skin; topical Lupeol alone, 24 and 48 h post treatment): did not result in an increase in skin edema | inhibition in TPA induced activation of IKKα protein (IKKα protein): ~95%
